The source made the active and inactive calls. The calls are words filed in the database; no cut-off is given here.

From ChEMBL document CHEMBL4665659, “Utilizing comprehensive and mini-kinome panels to optimize the selectivity of quinoline inhibitors for cyclin G associated kinase (GAK)” (Bioorg Med Chem Lett, 2019) come the findings set out here.

Assay [1] has as its target T1, Activin receptor type-1 (Homo sapiens) (UniProt Q04771).
T1 sequence (whole entry): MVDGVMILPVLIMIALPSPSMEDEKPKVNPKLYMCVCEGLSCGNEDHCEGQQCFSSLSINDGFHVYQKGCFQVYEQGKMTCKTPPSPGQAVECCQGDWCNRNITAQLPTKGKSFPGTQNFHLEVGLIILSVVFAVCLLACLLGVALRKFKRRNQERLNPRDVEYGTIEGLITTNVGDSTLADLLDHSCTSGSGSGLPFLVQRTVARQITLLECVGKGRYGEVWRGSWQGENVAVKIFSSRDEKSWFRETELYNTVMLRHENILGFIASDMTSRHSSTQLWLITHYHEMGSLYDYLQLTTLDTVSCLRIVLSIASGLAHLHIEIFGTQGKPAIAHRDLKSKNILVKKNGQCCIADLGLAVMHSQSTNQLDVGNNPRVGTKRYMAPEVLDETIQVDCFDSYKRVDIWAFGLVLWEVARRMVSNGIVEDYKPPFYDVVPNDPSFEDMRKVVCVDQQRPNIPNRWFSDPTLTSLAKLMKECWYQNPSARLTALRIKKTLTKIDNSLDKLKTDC
In words: Inhibition of human wild type partial length ALK2 (C188 to C509 residues) expressed in bacterial expression system at 1 uM by Kinomescan method relative to control.

In assay [2] the target is Tyrosine-protein kinase Fyn (Homo sapiens) (UniProt P06241). In words: Inhibition of human wild type partial length Fyn (T243 to L534 residues) expressed in bacterial expression system at 1 uM by Kinomescan method.
In assay [3] the target is Bone morphogenetic protein receptor type-1B (Homo sapiens, UniProt O00238). The assay can be described thus: Inhibition of human ALK6 at 1 uM by Kinomescan method.
A further assay is filed under the species Homo sapiens. The assay can be described thus: Binding affinity to human ABL at 1 uM by Kinomescan method.
Assay [4] concerns the target T2, Ephrin type-A receptor 8 (Homo sapiens) (UniProt P29322).
T2 sequence (whole entry): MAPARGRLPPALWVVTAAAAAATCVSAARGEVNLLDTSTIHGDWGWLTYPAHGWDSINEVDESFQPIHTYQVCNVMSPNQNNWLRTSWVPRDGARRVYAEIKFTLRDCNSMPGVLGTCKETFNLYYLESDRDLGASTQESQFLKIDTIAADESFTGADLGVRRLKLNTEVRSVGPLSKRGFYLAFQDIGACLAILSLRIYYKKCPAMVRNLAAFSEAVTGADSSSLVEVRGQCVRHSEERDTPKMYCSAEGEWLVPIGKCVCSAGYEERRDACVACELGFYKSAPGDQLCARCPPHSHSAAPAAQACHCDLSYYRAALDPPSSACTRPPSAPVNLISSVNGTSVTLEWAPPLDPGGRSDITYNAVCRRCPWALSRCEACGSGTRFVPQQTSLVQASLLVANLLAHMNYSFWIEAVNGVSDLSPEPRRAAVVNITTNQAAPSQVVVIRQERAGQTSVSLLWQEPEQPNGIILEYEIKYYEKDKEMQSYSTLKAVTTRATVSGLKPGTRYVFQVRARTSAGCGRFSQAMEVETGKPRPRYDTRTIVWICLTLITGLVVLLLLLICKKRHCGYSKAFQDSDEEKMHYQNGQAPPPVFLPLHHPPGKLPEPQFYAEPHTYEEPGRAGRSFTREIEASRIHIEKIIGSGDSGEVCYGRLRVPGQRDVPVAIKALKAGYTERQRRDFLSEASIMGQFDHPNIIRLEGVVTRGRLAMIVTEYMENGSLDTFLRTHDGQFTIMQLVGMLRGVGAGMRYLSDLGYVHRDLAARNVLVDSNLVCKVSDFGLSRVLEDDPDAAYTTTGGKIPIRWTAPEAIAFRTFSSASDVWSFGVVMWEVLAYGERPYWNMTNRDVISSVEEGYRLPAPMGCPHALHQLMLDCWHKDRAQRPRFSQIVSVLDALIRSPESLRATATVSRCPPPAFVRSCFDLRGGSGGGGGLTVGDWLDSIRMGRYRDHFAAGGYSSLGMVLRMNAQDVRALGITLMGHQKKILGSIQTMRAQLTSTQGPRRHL
In words: Inhibition of human wild type partial length EphA8 (Q608 to C920 residues) expressed in bacterial expression system at 1 uM by Kinomescan method.

Assay [5] concerns the target Epidermal growth factor receptor (Homo sapiens) (UniProt P00533). In words: Inhibition of human wild type partial length EGFR (R669 to V1011 residues) expressed in bacterial expression system at 1 uM by Kinomescan method.

Sequence of Bone morphogenetic protein receptor type-1B (O00238 whole entry): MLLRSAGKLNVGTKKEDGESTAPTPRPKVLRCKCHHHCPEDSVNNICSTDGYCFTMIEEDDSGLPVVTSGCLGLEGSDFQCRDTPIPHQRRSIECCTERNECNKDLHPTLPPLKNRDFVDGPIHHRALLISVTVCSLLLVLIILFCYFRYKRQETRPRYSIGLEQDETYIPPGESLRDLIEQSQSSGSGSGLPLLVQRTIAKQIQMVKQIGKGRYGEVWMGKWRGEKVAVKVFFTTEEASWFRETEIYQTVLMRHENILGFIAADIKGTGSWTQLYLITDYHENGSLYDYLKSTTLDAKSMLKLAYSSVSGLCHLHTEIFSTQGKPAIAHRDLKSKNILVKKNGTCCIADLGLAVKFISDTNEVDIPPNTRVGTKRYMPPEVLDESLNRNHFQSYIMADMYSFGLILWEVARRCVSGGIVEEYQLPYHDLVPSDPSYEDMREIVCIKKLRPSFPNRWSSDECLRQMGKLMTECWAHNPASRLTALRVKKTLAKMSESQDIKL
Sequence of Tyrosine-protein kinase Fyn (Homo sapiens) (P06241 2-537 limits assumed): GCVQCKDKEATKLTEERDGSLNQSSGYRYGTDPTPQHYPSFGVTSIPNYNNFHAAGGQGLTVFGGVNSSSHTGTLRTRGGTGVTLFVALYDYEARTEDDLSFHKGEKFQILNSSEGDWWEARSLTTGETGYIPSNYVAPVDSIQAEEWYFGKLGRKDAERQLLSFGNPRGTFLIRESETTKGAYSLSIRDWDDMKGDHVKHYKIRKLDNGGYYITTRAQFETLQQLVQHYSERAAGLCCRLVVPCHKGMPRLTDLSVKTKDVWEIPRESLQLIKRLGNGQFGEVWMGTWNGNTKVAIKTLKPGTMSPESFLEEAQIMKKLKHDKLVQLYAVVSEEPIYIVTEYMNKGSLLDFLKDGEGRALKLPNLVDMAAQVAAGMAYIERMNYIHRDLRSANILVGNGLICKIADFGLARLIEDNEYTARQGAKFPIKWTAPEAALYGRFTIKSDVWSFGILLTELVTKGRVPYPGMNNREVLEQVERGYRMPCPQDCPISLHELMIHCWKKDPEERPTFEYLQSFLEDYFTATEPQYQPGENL
Sequence of Epidermal growth factor receptor (Homo sapiens) (P00533 whole entry, the tested form may be a part): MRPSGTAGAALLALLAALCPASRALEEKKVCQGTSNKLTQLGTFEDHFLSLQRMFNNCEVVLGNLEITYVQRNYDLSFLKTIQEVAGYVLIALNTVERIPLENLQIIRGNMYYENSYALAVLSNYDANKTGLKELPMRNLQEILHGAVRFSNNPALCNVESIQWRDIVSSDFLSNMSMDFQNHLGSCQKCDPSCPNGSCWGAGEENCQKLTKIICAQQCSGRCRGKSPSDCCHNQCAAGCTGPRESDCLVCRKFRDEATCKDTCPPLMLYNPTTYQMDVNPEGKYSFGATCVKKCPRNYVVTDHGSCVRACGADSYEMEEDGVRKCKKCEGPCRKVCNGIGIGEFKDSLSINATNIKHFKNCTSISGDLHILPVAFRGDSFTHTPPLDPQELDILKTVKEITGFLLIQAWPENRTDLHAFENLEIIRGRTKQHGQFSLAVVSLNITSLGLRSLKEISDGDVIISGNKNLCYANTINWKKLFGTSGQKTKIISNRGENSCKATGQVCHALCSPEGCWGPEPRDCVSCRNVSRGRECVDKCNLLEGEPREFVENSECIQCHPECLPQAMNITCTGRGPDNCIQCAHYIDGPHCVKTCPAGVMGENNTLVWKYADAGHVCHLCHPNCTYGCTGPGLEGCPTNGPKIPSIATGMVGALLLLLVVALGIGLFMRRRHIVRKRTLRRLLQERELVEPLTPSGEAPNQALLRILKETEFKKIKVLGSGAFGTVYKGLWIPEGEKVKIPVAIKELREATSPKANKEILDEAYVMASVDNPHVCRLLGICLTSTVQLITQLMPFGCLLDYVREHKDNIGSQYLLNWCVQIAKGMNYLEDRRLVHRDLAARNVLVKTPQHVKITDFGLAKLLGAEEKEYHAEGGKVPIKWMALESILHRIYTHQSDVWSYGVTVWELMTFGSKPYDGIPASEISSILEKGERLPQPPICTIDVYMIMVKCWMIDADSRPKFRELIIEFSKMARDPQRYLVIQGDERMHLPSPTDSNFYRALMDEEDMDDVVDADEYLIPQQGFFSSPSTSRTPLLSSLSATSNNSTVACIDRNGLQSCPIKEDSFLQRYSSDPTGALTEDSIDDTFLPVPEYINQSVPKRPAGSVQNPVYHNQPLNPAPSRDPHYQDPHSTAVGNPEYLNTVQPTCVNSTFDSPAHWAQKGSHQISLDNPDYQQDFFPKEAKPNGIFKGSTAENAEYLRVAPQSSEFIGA

Take `COc1cc(Nc2ccnc3cc(C(F)(F)F)ccc23)cc(OC)c1OC`: the inhibition (usually the share of the control response that was lost under treatment) in assay [1] came out at 80%. The inhibition entry in assay [2], in assay [3] and in assay [4] was “Active” in each case. Moreover, the result in the assay filed under Homo sapiens was Active. Also, the inhibition entry in assay [5] was “inactive”.

With `COc1cc(Nc2ccnc3cc(C#N)ccc23)cc(OC)c1OC`, the inhibition in assay [1] was found to be 80%. Also, the inhibition entry in assay [2], in assay [3] and in assay [4] was “Active” each time. In the assay listed under Homo sapiens, the result was Active. Moreover, the inhibition result in assay [5] was “inactive”.

Compound `COc1cc(Nc2ccnc3cc(I)ccc23)cc(OC)c1OC` displayed an inhibition in assay [1] of 80%. Further, the inhibition entry in assay [2], in assay [3] and in assay [4] was “Active” in each case. Further, the outcome in the assay listed under Homo sapiens was Active. The inhibition result in assay [5] is “inactive”.

The compound `COc1cc(Nc2ccnc3cc(Cl)ccc23)cc(OC)c1OC` registered an inhibition in assay [1] of 80%. Also, the inhibition entry in assay [2], in assay [3] and in assay [4] was “Active” throughout. Besides, the result in the assay listed under Homo sapiens was Active. In addition, the inhibition entry in assay [5] was “inactive”.

Compound `COc1cc(Nc2ccnc3cc(Br)ccc23)cc(OC)c1OC` returned an inhibition in assay [1] of 80%. For the same compound, the inhibition result in assay [2], in assay [3] and in assay [4] was “Active” throughout. Besides, in the assay listed under Homo sapiens, the result was Active. Also, the inhibition result in assay [5] was “inactive”.
